The text below walks through data of patent US8183265B2, “2-adamantyl-butyramide derivatives as selective 11β-HSD1 inhibitors” (Merck Patent GmbH, priority 2006, dated 2012).

The experiment has as its target Human recombinant 11beta-hydroxysteroid dehydrogenase type 1 (11beta-HSD1) (Homo sapiens, UniProt P28845). The experiment can be described thus: 11beta-HSD1 enzyme assay (HTRF cortisol).

Sequence of Human recombinant 11beta-hydroxysteroid dehydrogenase type 1 (11beta-HSD1) (P28845 whole entry): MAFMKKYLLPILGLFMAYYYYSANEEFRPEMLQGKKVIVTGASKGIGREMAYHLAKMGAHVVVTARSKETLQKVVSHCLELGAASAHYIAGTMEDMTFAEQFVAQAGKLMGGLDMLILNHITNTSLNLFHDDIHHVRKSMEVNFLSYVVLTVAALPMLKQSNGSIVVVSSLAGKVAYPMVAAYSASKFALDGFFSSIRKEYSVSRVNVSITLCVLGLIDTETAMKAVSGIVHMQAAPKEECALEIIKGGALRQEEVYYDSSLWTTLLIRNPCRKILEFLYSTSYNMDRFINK
Procedure: Mice liver microsome fractions were purchased from TEBU.
The 11beta-HSD1 enzyme assay was carried out in 96 well microtiter plates in a total volume of 100 μl containing 30 mM Hepes buffer, pH 7.4 with 1 mM EDTA, substrate mixture cortisone/NADPH (200 nM/200 μM), G-6-P (1 mM) and inhibitors in serial dilutions. […] Following mixing, the plates were shaken for 150 minutes at 37° C. The reactions were terminated with 10 μl Acid-18beta glycyrrhetinic stop solution. Determinations of cortisol levels in 11 beta-HSD1 preparations were monitored by HTRF (HTRF cortisol assay from Cis bio international).

As usually defined, the IC50 is the concentration needed to halve the response being measured. On to `COc1cc(Cl)ccc1OCC(C)(C)CC(=O)NC1C2CC3CC(C2)CC1C3` (stereo not shown), for which the IC50 stood at 45 nM.
